According to patent US9867798B2, “Ladostigil therapy for immunomodulation” (priority 2012, dated 2018):

Columns and labels:
ChE = assay: Cholinesterase inhibition in plasma and spleen of LPS injected mice (Example 5); format: in vivo, Balb-C mice; settings: for Inhibition of ChE, plasma / Inhibition of ChE, spleen: 60 min after oral administration, LPS injected mice
Description: (§1) In experiments on the effect of chronic treatment with ladostigil on ChE activity in mice drinking DSS, the spleen was rapidly removed as described above, together with a colon segment of about 0.5 cm in length taken from the proximal area. Spleen and colon segments were washed in cold phosphate buffered saline (PBS) before they were frozen at −80° C. For assay, the tissue was unfrozen and weighed and PBS was added to each tissue at a ratio of 1 mg tissue to 1 ml. Tissues were homogenized at a speed of 24,000 rpm in cold phosphate buffer pH 7 containing 0.1% Triton and centrifuged at 14000 rpm. Aliquots of plasma and the supernatant from the spleen and colon were incubated with acetylthiocholine and dinitro benzoic acid in phosphate buffer pH 7 and the rate of development of the yellow color was measured as described by Ellman et al, (1961). Percent inhibition of ChE activity was calculated by comparison with that of control mice given water by gavage. Protein concentration was determined by means of by Pierce BCA Protein Assay Kit (Thermo Scientific, USA) according to the manufacturer's instructions. It is noted, that ChE activity in the colon and spleen of mice is attributed mainly to that of AChE while that in mouse plasma is mainly attributable to BuChE.
For the LPS experiment involving a single administration, ladostigil (10 or 20 mg/kg) in a volume of 1 ml/100 g or water (1 ml/100 g) were given by gavage to groups of 6-8 Balb-C male mice weighing 24-30 g and LPS as described above. […] Blood was taken into heparinized tubes and centrifuged at 14000 rpm at room temperature for 4 min to provide plasma and the spleen was rapidly removed, weighed, frozen in liquid nitrogen and stored at −80° C. until assayed. It is noted, that ChE inhibition in mouse plasma is mainly attributed to BuChE activity, and in mouse spleen—mainly to AChE activity.
Percent inhibition of ChE activity was calculated by comparison with that of control mice given water by gavage as described in Example 1 above.

[1] = test system: cholinesterase (AChE and BuChE); assay: Cholinesterase activity in spleen and colon of mice drinking DSS (Ellman); format: in vivo; settings: rivastigmine 1 mg/kg/day
Description: (§2) BALB/c OlaHsd male mice aged 8-9 weeks and weighing 25-30 g were purchased from Harlan (Jerusalem, Israel) and housed in standard cages of up to 5 per cage in the pathogen free Animal Facility of the Institute for Drug Research. All experiments were performed in accordance with the Principles of Laboratory Animal Care (NIH publication #85-23, revised 1985) protocols MD-09-12197-4. Acute colitis was induced in mice by administration of 5% DSS solution (M.Wt.=[…], MP Biomedicals, LLC, Solon, Ohio, USA) in water for 8 days. The DSS solution was freshly prepared every day. Mice were provided with food and water or DSS solution ad libitum during the experiment. They were divided into groups of 10 as follows: Vehicle control group: mice drank water and were given water (1 ml/100 gm) once daily by gavage for 8 days; Drug control group: mice drank water and were given ladostigil (10 mg/kg) by gavage once daily for 8 days. DSS untreated group: mice drank 5% DSS for 7 days and water on the 8th day and were given water (1 ml/100 g) once daily by gavage for 8 days. Drug treated group: mice drank 5% DSS followed by water as above and were given ladostigil (5 or 10 mg/kg) by gavage once daily for 8 days. The volume of 5% DSS solution consumed was measured for each group of mice and the average volume/mouse was calculated. On the eighth day, the mice were anesthetized by CO2 and sacrificed by cervical dislocation 2 h after the last dose of ladostigil. Samples of colon and spleen were taken for measurement of cytokines MPO, cytokines and ChE activity.
as §1

[2] = test system: mice with DSS-induced colitis; assay: Acute colitis induced by DSS in mice: body weight, stool, bleeding, DAI, colon length; format: in vivo, BALB/c OlaHsd mice
Description: as §2
Body weight, stool consistency and the presence of blood in the stools was recorded daily for each mouse. […] The score ranged between 0-4 for all three parameters and was composed as follows: Weight loss: none=0, 1-5%=1, 5-10%=2, 10-20%=3, >20%=4. Percent of weight loss on days 7 and 8 relative to the first day was calculated for all the groups. […] Bleeding: none=0, hemoccult=2, gross bleeding=4. The maximum DAI score was 4 based on a combination of scores of weight loss (relative to that on the first day of the experiment), stool consistency and bleeding, divided by 3. After sacrifice the length of the colon segment from the cecum to the rectum was measured.

[3] = test system: LPS-induced TNF-α, IL-1β and IL-6 in spleen; assay: Cytokines in spleen of mice injected with LPS, comparison to rivastigmine (Example 5); format: in vivo, Balb/c mice; settings: for IL-1β in spleen / IL-6 in spleen / TNF-α in spleen: four hours
Description: Male Balb/c mice (aged 8-9 weeks, weighing 25-30 gm) were given ladostigil (10 or 20 mg/kg) or rivastigmine (0.5 or 1 mg/kg) by gavage, or water (1 ml/100 g), followed 15 min later by an intra-peritoneal injection of LPS (10 mg/kg). Control mice were given LPS and water by gavage (1 ml/100 g). For measurement of cytokine levels in the spleen and blood the mice were sacrificed 4 h after drug administration, blood collected in heparinized tubes and centrifuged to obtain plasma and the spleen was rapidly removed and weighed. Plasma and spleen were frozen in liquid nitrogen and stored at −80° C. until use. For measurement of cytokine levels, the tissue was diluted in PBS containing 0.8% NaCl, 0.144% NaHPO4, 0.024% KH2PO4 and protease inhibitor cocktail (Sigma Israel, P8340) and homogenized in an Ultra-TURRAX® homogenizer at a speed of 24,000 rpm, centrifuged at 14000 g for 15 min at 4° C. Cytokines were detected in the supernatant by using ELISA kits for cytokines IL-1β, IL-6, and TNF-α (Biolegend) following the manufacturer's protocol. Each experiment was performed twice with 8 replicate measures in each experiment. Protein concentration in each sample was determined with Bradford reagent (Bio-RAD, 500-0006).

[4] = rivastigmine 0.5 mg/kg + LPS 10 mg/kg
[5] = rivastigmine 1 mg/kg + LPS 10 mg/kg

CCN(C)C(=O)Oc1cccc([C@H](C)N(C)C)c1 [Rivastigmine, reference compound]
Inhibition of ChE, plasma (ChE; rivastigmine 0.5 mg/kg): 28 ± 4.5 % | Inhibition of ChE, spleen (ChE; rivastigmine 0.5 mg/kg): 32.6 ± 5.6 % | Inhibition of ChE in plasma and spleen, compared with rivastigmine 0.5 mg/kg (ChE; rivastigmine 1 mg/kg): about twice as much | Inhibition of ChE, plasma (ChE; rivastigmine 1 mg/kg): 56.8 ± 6.1 % | Inhibition of ChE, spleen (ChE; rivastigmine 1 mg/kg): 65.8 ± 3.2 % | Inhibition of colonic ChE [1]: > 60% | Prevention of weight loss induced by DSS ([2]; 5% DSS, rivastigmine): did not prevent the weight loss | Body weight decrease ([2]; mice given 1 mg/kg/day): 4.7% | Effect on levels of the three cytokines in spleen ([3]; rivastigmine 0.5 mg/kg + LPS): had no effect on levels of any of the three cytokines | IL-1β in spleen [3, 4]: 551 ± 31 pg/mg | IL-6 in spleen [3, 4]: 569 ± 89 pg/mg | TNF-α in spleen [3, 4]: 16.8 ± 2.5 pg/mg | Effect on cytokine levels in spleen ([3]; rivastigmine 1 mg/kg + LPS): significantly reduced IL-1β and IL-6, but not of TNF-α | IL-1β in spleen [3, 5]: 440 ± 40 pg/mg | IL-6 in spleen [3, 5]: 462 ± 66 pg/mg | TNF-α in spleen [3, 5]: 16.5 ± 2.2 pg/mg
